In this assay the target is T1, Ba/F3 Axl (Homo sapiens, UniProt P30530).
T1 sequence (P30530 1-894): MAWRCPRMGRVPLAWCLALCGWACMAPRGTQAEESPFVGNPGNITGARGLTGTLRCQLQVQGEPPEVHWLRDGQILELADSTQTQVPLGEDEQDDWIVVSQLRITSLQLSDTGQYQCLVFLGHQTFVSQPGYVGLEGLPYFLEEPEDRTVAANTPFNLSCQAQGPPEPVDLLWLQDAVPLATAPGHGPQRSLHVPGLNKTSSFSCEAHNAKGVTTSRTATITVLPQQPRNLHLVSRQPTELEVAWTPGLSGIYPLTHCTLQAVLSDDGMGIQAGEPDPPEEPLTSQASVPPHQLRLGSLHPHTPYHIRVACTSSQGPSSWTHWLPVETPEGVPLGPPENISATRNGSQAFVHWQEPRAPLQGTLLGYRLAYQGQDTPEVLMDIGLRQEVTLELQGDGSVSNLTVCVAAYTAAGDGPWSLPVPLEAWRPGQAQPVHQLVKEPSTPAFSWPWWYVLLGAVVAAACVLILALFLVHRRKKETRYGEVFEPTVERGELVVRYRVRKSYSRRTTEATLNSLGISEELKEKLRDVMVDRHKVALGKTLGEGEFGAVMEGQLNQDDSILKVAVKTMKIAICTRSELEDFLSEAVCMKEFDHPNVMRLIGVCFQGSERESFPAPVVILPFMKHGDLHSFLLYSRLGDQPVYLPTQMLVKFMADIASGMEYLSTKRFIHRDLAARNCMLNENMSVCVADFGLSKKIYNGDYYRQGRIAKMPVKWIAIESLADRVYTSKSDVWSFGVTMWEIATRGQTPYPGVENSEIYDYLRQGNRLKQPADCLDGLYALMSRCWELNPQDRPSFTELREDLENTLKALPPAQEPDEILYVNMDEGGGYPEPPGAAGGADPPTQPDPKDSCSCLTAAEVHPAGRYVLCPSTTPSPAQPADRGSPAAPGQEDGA
As to the kind of experiment: Proliferation suppression rate using mouse pro-B cell line (Ba/F3 Axl) stably expressing Axl. Type of assay: cell-based. As to conditions: Ba/F3 Axl cells, 48 hours, CellTiter-Glo; read-out: IC50 value, proliferation suppression of Ba/F3 Axl. How it is done:
Biological Example 2: Measurement of Proliferation Suppression Rate by Using Mouse Pro-B Cell Line (Ba/F3 Axl) Stably Expressing Axl
A 0.1 mmol/L DMSO solution of the test compound was dispensed into a 96-well plate, and a 3-fold dilution series was prepared using DMSO. DMSO solutions of test compounds, having various concentrations, were further 500-fold diluted with a RPMI1640 medium (containing 10% HI-FBS, 1% penicillin) and a diluted solution of the test compound having […] with respect to the final concentration was prepared. In each well of the 96-well plate (BD Biosciences) for measurement, 50 μL of a RPMI medium was added to the Blank group, 50 μL of a RPMI medium containing 0.2% DMSO was added to the medium group, and 50 μL of the diluted solution of the test compound was added to the test compound group, respectively. Ba/F3 Axl was diluted with a medium to have a density of 2×10^5 cells/mL to prepare a cell suspension. In each well of the 96-well plate for measurement, 50 μL each of the RPMI medium was added to the Blank group, and 50 μL each of the cell suspension to the medium group and the test compound group, respectively, and the groups were stood still at 37° C. at 5% CO2 for 48 hours. After standing still, Relative Light Unit (RLU) was measured by using CELLTITER-GLO (registered trademark) LUMINESCENT CELL VIABILITY ASSAY (Promega). The measurement was carried out according to the attached instruction. To each well, 100 μL each of light-emitting solution was added. The plate was stirred at room temperature for 3 min and then stool still at room temperature with light shielded for 10 min, and RLU was measured by using Microplate Reader (SpectraMax M5e, Molecular Devices). The average values of RLU of the Blank group and the medium group were respectively calculated, and the proliferation suppression rate of the test compound group was calculated. Proliferation suppression rate (%)={1−(RLU of test compound group−A)/(B−A)}×100 [Math. 2] A: average value of RLU of Blank group B: average value of RLU of medium group
A value of 50% inhibition rate (IC50 value) of the test compound was calculated from the inhibition curve based on the inhibition rate in each concentration of the test compound.
Background: Cellular ATP, detected with luciferase, serves as a proxy for viable cell number.
With `COc1cc2nccc(Oc3ccc(NC(=O)c4cc5c(n(-c6ccccc6)c4=O)CC(C)(C)CC5=O)nc3)c2cc1OC` [Example 5(1), N-{5-[(6,7-dimethoxy-4-quinolinyl)oxy]-2-pyridinyl}-7,7-dimethyl-2,5-dioxo-1-phenyl-1,2,5,6,7,8-hexahydro-3-quinolinecarboxamide], the GI50 is 0.8 nM.

In the case of `COc1cc2nccc(Oc3ccc(NC(=O)c4cc5c(n(-c6ccccc6)c4=O)CCCC5=O)nc3)c2cc1OC` [Example 5, N-{5-[(6,7-dimethoxy-4-quinolinyl)oxy]-2-pyridinyl}-2,5-dioxo-1-phenyl-1,2,5,6,7,8-hexahydro-3-quinolinecarboxamide], the GI50 came out at 0.7 nM. The same measure for `O=C1CCCc2c1cc(C(=O)Nc1ccc(Oc3ccnc4cc(OCCCN5CCOCC5)ccc34)cn1)c(=O)n2-c1ccccc1` [Example 17(2), N-[5-({7-[3-(4-morpholinyl)propoxy]-4-quinolinyl}oxy)-2-pyridinyl]2,5-dioxo-1-phenyl-1,2,5,6,7,8-hexahydro-3-quinolinecarboxamide]: 1.2 nM. Under `COc1cc2nccc(Oc3ccc(NC(=O)c4cc5c(n(-c6ccccc6)c4=O)CCCC5=O)c(C)c3)c2cc1OC` [Example 23(2), N-{4-[(6,7-dimethoxy-4-quinolinyl)oxy]-2-methylphenyl}-2,5-dioxo-1-phenyl-1,2,5,6,7,8-hexahydro-3-quinolinecarboxamide] stands 1.2 nM.

The record behind these values is patent publication US10676462B2, “Quinoline derivative” (ONO PHARMACEUTICAL CO., LTD., priority 2013, dated 2020).
